The assay deals with T1, ferroportin (Fpn) (Mus musculus, UniProt Q9JHI9).
T1 construct: host or cells: J774 mouse macrophage cell line, Fe(III)-NTA induced
T1 sequence (Q9JHI9 1-570): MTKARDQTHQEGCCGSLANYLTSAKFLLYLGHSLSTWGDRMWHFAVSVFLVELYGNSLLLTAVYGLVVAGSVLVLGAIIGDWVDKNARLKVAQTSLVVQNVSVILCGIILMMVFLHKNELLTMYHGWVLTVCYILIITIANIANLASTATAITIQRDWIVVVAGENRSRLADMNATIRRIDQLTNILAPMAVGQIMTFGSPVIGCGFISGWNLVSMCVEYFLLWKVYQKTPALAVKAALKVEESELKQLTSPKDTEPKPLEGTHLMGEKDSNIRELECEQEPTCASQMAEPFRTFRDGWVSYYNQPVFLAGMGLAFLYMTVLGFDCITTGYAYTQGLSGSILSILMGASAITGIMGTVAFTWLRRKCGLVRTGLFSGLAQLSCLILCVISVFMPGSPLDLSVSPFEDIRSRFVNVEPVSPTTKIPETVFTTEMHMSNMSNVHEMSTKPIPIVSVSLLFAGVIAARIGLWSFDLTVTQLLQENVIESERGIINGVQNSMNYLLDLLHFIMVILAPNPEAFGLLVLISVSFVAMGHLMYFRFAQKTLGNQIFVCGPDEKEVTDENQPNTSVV
Description: Hepcidin Internalization Assay (J774). Conditions: average of multiple measurements; inhibition of TMR-hepcidin (25 nM) internalization into J774 cells; read-out: J774 IC50. It counts as cell-based. An excerpt:
This cellular assay allows quantification of the binding of hepcidin to ferroportin (Fpn) through microscopic detection of internalization of a fluorescently labeled hepcidin into J774 cells. […] Binding of hepcidin to Fpn triggers internalization and degradation of both hepcidin and Fpn. However, the TMR (6-carboxytetramethylrhodamine) fluorophore attached to hepcidin remains associated with the cell after degradation of the hepcidin peptide backbone. Therefore, microscopic detection of ceH associated TMR fluorescence is a measure of hepcidin binding to Fpn and internalization of hepcidin and Fpn. If TMR-hepcidin is prevented from binding to Fpn, cellular TMR fluorescence remains low (Dürrenberger et al, 2013). The effect of small molecular weight Fpn inhibitor compounds in this assay was evaluated in vitro as described below.
J774 cells, harvested from ca. 80% confluent cultures, were plated at 8×10^5 cells/ml in complete medium (DMEM, 10% FBS, 1% Penicillin-Streptomycin) containing 200 μM Fe(III)NTA (nitrilotriacetic acid), 100 μl per well of 96 well MicroClear plates (Greiner; Cat. 655090) and grown at 37° C. with 5% CO2. After overnight incubation, cells were washed 3 times with pre-warmed DMEM w/o phenol red, 30 μl/well of DMEM w/o phenol red was added after the final wash and 10 μl/well of dilution series of test compounds were added in triplicates. […] Cells were incubated in a total volume of 50 μl at 37° C. with 5% CO2 for 2 hours, then Hoechst 33342 dye was added to a final concentration of 0.5 μg/ml to stain nuclei and further incubated for 10 min. at 37° C. with 5% CO2. Cells were washed 3 times with PBS and fixed in 100 μl of 4% paraformaldehyde in PBS for 15 min. at room temperature. After removal of the paraformaldehyde solution, cells were washed 3 times with PBS leaving 100 μl per well and the plates were sealed with foil plate seal. TMR (530-550 nm excitation/575-625 nm emission/400 ms exposure time) and Hoechst 33342 (360-370 nm excitation/420-460 nm emission/10 ms exposure time) fluorescence images were acquired using a ScanR plate imager (Olympus) with a 20× high NA objective. Four pictures were acquired per well and fluorescence channel covering ca. 1500 cells per well. The acquired image data was analysed with the ScanR image analysis software. Image analysis included detection of nuclei (Hoechst 33342 fluorescence), identification of cell-associated regions, application of a virtual channel and thresholding for rolling-ball-type background reduction, followed by application of the Sum(Mean) algorithm to measure the TMR fluorescence associated with cells as a quantitative measure for internalized TMR-hepcidin. IC50 values were calculated with the Sum(Mean) raw data using “log(inhibitor) vs. response” curve fitting of Prism 5 software (GraphPad Software Inc., version 5.02).

With `Cc1ccc(CNC(=O)c2csc(CCNCCc3nc4ccccc4[nH]3)n2)nn1` [Example 174], the half-maximal inhibitory concentration (IC50) is 141 nM.

On to `Cc1sc(CCNCCc2nc3ccccc3[nH]2)nc1C(=O)NCc1ncccc1F` [Example 165], for which the half-maximal inhibitory concentration (IC50) came out at 100 nM.

Consider `O=C(NCc1ncccc1F)c1nc(C2CN(CCc3nc4ccccc4[nH]3)C2)sc1Cl` [Example 209], for which the IC50 came to 379 nM.

Regarding `O=C(NCc1ccccn1)c1cnn(CCNCCc2nc3ccccc3[nH]2)c1` [Example 109], the 50% inhibitory concentration (IC50) was 76 nM.

Consider `O=C(NCc1ncccc1F)c1coc(CCNCc2nc3c(F)cccc3[nH]2)n1` [Example 253], for which the concentration for half-maximal inhibition (IC50) was determined as 226 nM.

Regarding `O=C(NCc1ncccc1F)c1coc(CNCCc2nc3ccccc3[nH]2)n1` [Example 206], the concentration for half-maximal inhibition (IC50) worked out at 180 nM.

As to `COc1cccc2[nH]c(CCNCCc3nc(C(=O)NCc4ncccc4F)co3)nc12` [Example 227], the IC50 was found to be 130 nM.

`O=C(NCc1ccccc1)c1csc(CCNC(=O)c2ncc[nH]2)n1` [Example 8]: the IC50 stood at 42900 nM.

For `O=C(Cc1nc2ccccc2[nH]1)NCCc1nc(C(=O)NCc2ncccc2F)cs1` [Example 113], the IC50 is more than 25000 nM.

For `O=C(NCc1ccccn1)c1nc(CCNCc2nc3ccccc3[nH]2)sc1Cl` [Example 160], the 50% inhibitory concentration (IC50) stood at 256 nM.

As to `O=C(NCc1ncccc1F)c1nc(CCNCc2nc3ccccc3[nH]2)sc1C(F)(F)F` [Example 176], the IC50 stood at 957 nM.

As for `O=C(NCc1ncccc1F)c1csc(CCN(CCc2nc3ccccc3[nH]2)CC2CC2)n1` [Example 148], the half-maximal inhibitory concentration (IC50) amounted to 2080 nM.

As to `O=C(NCc1ncccc1F)c1nc(C2(O)CN(CCc3nc4ccccc4[nH]3)C2)sc1Cl` [Example 211], the 50% inhibitory concentration (IC50) worked out at 747 nM.

On to `O=C(NCc1ncccc1Cl)c1csc(C2CN(CCc3nc4ccccc4[nH]3)C2)n1` [Example 195], for which the half-inhibitory concentration (IC50) stood at 210 nM.

As to `O=C(NCc1ncc(F)cc1F)c1csc(CCNCCc2nc3cc(F)ccc3[nH]2)n1` [Example 123], the half-maximal inhibitory concentration (IC50) came to 170 nM.

Turning to `O=C(NCc1ncccc1F)c1coc(CCNCCc2nc3c(C(F)(F)F)cccc3[nH]2)n1` [Example 256], the IC50 amounted to 81 nM.

Consider `O=C(NCc1ncccc1F)[C@@H]1CCN(CCNCc2nc3ccccc3[nH]2)C1` [compound 202], for which the half-maximal inhibitory concentration (IC50) amounted to 5000 nM.

Turning to `CC(C)(Cc1nc(C(=O)NCc2ncccc2F)cs1)NCc1nc2ccccc2[nH]1` [Example 231], the IC50 came out at 5200 nM.

Regarding `Cc1sc(CCNCc2nc3ccccc3[nH]2)nc1C(=O)NCc1ncccc1F` [Example 164], the IC50 is 343 nM.

For `O=C(NCc1ncccc1F)c1nc(CCNCCc2nc3ccccc3[nH]2)sc1C(F)(F)F` [Example 186], the IC50 was found to be 300 nM.

Consider `O=C(c1csc(CCNCc2nc3ccccc3[nH]2)n1)N1CCOCC1` [Example 18], for which the half-maximal inhibitory concentration (IC50) is 8700 nM.

On to `O=C(NCc1cccnn1)c1coc(C2CN(CCc3nc4ccccc4[nH]3)C2)n1` [Example 244], for which the half-inhibitory concentration (IC50) was 90 nM.

`O=C(NCc1ncccc1F)c1coc(CCNCCc2nc3c(F)c(F)ccc3[nH]2)n1` [Example 257]: the IC50 was determined as 35 nM.

Take `O=C(NCc1ccccn1)c1coc(CCNCCc2nc3c(F)cccc3[nH]2)n1` [Example 236]: the IC50 worked out at 150 nM.

Regarding `O=C(NCc1ncccn1)c1csc(CCNCCc2nc3ccccc3[nH]2)n1` [Example 129], the IC50 stood at 353 nM.

Regarding `O=C(NCc1ncccc1Cl)c1coc(CCNCCc2nc3ccccc3[nH]2)n1` [Example 173], the 50% inhibitory concentration (IC50) came to 6 nM.

Turning to `Cc1cnc(CNC(=O)c2nc(CCNCCc3nc4ccccc4[nH]3)sc2Cl)nc1` [Example 182], the IC50 amounted to 989 nM.

Consider `CCCCN(CCc1nc2ccccc2[nH]1)CCc1nc(C(=O)NCc2ncccc2F)cs1` [Example 157], for which the IC50 came out at 717 nM.

Take `O=C(NCc1cccnn1)c1nc(CCNCCc2nc3ccccc3[nH]2)sc1Cl` [Example 183]: the half-maximal inhibitory concentration (IC50) was determined as 131 nM.

As for `O=C(NC1CCc2cccnc21)c1cnn(C2CN(CCc3nc4ccccc4[nH]3)C2)c1` (centres unmarked) [Example 191], the IC50 came out at 330 nM.

For the molecule `CC(C)(CNCCc1nc(C(=O)NCc2ncccc2F)cs1)c1nc2ccccc2[nH]1` [Example 199], the 50% inhibitory concentration (IC50) worked out at 780 nM.

For `O=C(NCc1ccccc1)c1csc(CCNC(=O)c2nc3ccccc3[nH]2)n1` [Example 7], the half-maximal inhibitory concentration (IC50) was 14200 nM.

With `O=C(NCc1ccccc1)c1csc(CCNCc2nccs2)n1` [Example 3], the half-inhibitory concentration (IC50) came to 16600 nM.

Take `O=C(NCc1ccccn1)c1nc(CCN2CCc3nc4ccccc4n3C2)sc1Cl` [Example 189]: the IC50 is 60 nM.

`O=C(NCc1ncccc1F)c1cnn(CCNCc2nc3ccccc3[nH]2)c1` [Example 145]: the IC50 amounted to 385 nM.

Take `O=C(NCc1ncccc1F)c1cnn(C2CCN(CCc3nc4ccccc4[nH]3)CC2)c1` [Example 198]: the IC50 was 27000 nM.

Turning to `O=C(NCc1ncccc1F)c1csc(CCNCc2nc3ccc(F)cc3[nH]2)n1` [Example 114], the IC50 came out at 118 nM.

Turning to `O=C(NCc1ccccn1)c1coc(C2CN(CCc3nc4c(F)cccc4[nH]3)C2)n1` [Example 258], the half-maximal inhibitory concentration (IC50) is 152 nM.

`O=C(NCc1ncccn1)c1nc(CCNCc2nc3ccccc3[nH]2)sc1Cl` [Example 175]: the IC50 was determined as 1020 nM.

For `O=C(NCc1ncccc1F)c1cn(CCNCc2nc3ccccc3[nH]2)nc1C(F)(F)F` [Example 156], the 50% inhibitory concentration (IC50) was determined as 2460 nM.

As to `O=C(NCc1ncccc1F)c1coc(CCNCCc2nc3c(F)ccc(F)c3[nH]2)n1` [Example 251], the concentration for half-maximal inhibition (IC50) turned out to be 62 nM.

Consider `Cn1nc(CNCCc2nc3ccccc3[nH]2)cc1C(=O)NCc1ncccc1F` [Example 220], for which the IC50 came to 290 nM.

In the case of `O=C(NCc1ncccc1F)c1csc(CCNCc2nc3ccccc3o2)n1` [Example 115], the IC50 was more than 25000 nM.

On to `Cc1nn(CCNCc2nc3ccccc3[nH]2)c(C)c1C(=O)NCc1ncccc1F` [Example 142], for which the IC50 was found to be 21600 nM.

For `Cc1cnc(CNC(=O)c2csc(CCNCCc3nc4ccccc4[nH]3)n2)nc1` [Example 155], the IC50 worked out at 347 nM.

Take `O=C(NCc1ccccc1)c1csc(CCNCc2n[nH]c3ccccc23)n1` [Example 5]: the concentration for half-maximal inhibition (IC50) turned out to be 10400 nM.

For the molecule `O=C(NCc1ncccc1F)c1nc(CNCCc2nc3ccccc3[nH]2)cs1` [Example 205], the IC50 is 370 nM.

On to `Cc1sc(CCNCCc2nc3ccccc3[nH]2)nc1C(=O)NCc1ncccn1` [Example 188], for which the half-maximal inhibitory concentration (IC50) was found to be 1160 nM.

As for `NCCCN(CCc1nc2ccccc2[nH]1)CCc1nc(C(=O)NCc2ncccc2F)cs1` [Example 163], the IC50 turned out to be 828 nM.

Consider `O=C(NCc1ncccc1F)c1csc(CCNCc2nc3c(F)cccc3[nH]2)n1` [Example 274], for which the concentration for half-maximal inhibition (IC50) is 145 nM.

As for `O=C(NCc1ncccc1F)c1coc(C2CN(CCc3nc4c(C(F)(F)F)cccc4[nH]3)C2)n1` [Example 273], the half-maximal inhibitory concentration (IC50) stood at 228 nM.

Regarding `O=C(NCc1ncccc1F)c1cn(CCNCCc2nc3ccccc3[nH]2)nc1C(F)(F)F` [Example 162], the IC50 was 297 nM.

As to `O=C(NCc1ccccn1)c1nc(CCNCCc2nc3ccccc3[nH]2)sc1Cl` [Example 184], the half-inhibitory concentration (IC50) is 63 nM.

For `O=C(NCc1ncccc1F)c1coc(CCNCCc2nc3c(F)ccc(Cl)c3[nH]2)n1` [Example 247], the IC50 turned out to be 82 nM.

Consider `NC(=O)c1csc(CCNCc2nc3ccccc3[nH]2)n1` [compound 23], for which the IC50 turned out to be 15800 nM.

`CC(=O)N(CCc1nc(C(=O)NCc2ccccc2)cs1)Cc1nccn1C` [Example 4]: the IC50 was found to be 15400 nM.

What is called IC50 is the concentration that inhibits the measured activity by half.
